Test results reported in ChEMBL document CHEMBL1201861, “Genomics of Drug Sensitity in Cancer screening data, Wellcome Trust Sanger Institute”.
pIC50: −log10 of the molar value.

Columns and labels:
Experiment in all cases: cells
HCC1187 = format: functional, cell-based, Homo sapiens; conditions: Homo sapiens, HCC1187;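 also: growth inhibition of HCC1187 cells, read out with a cell viability assay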
Description: SANGER: Inhibition of human HCC1187 cell growth in a cell viability assay.

NCI-H82 = format: functional, cell-based, Homo sapiens; conditions: Homo sapiens, NCI-H82;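 also: growth inhibition of NCI-H82 cells, measured with a cell viability readout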
Description: SANGER: Inhibition of human NCI-H82 cell growth in a cell viability assay.

DJM-1 = format: functional, cell-based, Homo sapiens; conditions: Homo sapiens, DJM-1;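 also: growth inhibition of human DJM-1 cells, read out by a cell viability assay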
Description: SANGER: Inhibition of human DJM-1 cell growth in a cell viability assay.

RPMI-8226 = format: functional, cell-based, Homo sapiens; conditions: Homo sapiens, RPMI-8226
Description: SANGER: Inhibition of human RPMI-8226 cell growth in a cell viability assay.

LB996-RCC = format: functional, cell-based, Homo sapiens; conditions: Homo sapiens, LB996-RCC
Description: SANGER: Inhibition of human LB996-RCC cell growth in a cell viability assay.

D-263MG = format: functional, cell-based, Homo sapiens; conditions: Homo sapiens, D-263MG
Description: SANGER: Inhibition of human D-263MG cell growth in a cell viability assay.

LAN-6 = format: functional, cell-based, Homo sapiens; conditions: Homo sapiens, LAN-6;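 also: growth inhibition of LAN-6 cells, determined with a cell viability assay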
Description: SANGER: Inhibition of human LAN-6 cell growth in a cell viability assay.

LS-1034 = format: functional, cell-based, Homo sapiens; conditions: Homo sapiens, LS-1034
Description: SANGER: Inhibition of human LS-1034 cell growth in a cell viability assay.

SF-268 = format: functional, cell-based, Homo sapiens; conditions: Homo sapiens, SF-268;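 also: growth inhibition of SF-268 cells determined with a cell viability assay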
Description: SANGER: Inhibition of human SF268 cell growth in a cell viability assay.

GR-ST = format: functional, cell-based, Homo sapiens; conditions: Homo sapiens, GR-ST
Description: SANGER: Inhibition of human GR-ST cell growth in a cell viability assay.

SK-UT-1 = format: functional, cell-based, Homo sapiens; conditions: Homo sapiens, SK-UT-1;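 also: growth inhibition of SK-UT-1 cells, measured by a cell viability assay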
Description: SANGER: Inhibition of human SK-UT-1 cell growth in a cell viability assay.

NMC-G1 = format: functional, cell-based, Homo sapiens; conditions: Homo sapiens, NMC-G1;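 also: growth inhibition of the NMC-G1 cell line, measured with a cell viability read-out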
Description: SANGER: Inhibition of human NMC-G1 cell growth in a cell viability assay.

MZ2-MEL = format: functional, cell-based, Homo sapiens; conditions: Homo sapiens, MZ2-MEL;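 also: growth inhibition of MZ2-MEL cells read out with a cell viability assay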
Description: SANGER: Inhibition of human MZ2-MEL cell growth in a cell viability assay.

LNCaP-Clone-FGC = format: functional, cell-based, Homo sapiens; conditions: Homo sapiens, LNCaP-Clone-FGC
Description: SANGER: Inhibition of human LNCaP-Clone-FGC cell growth in a cell viability assay.

ES6 = format: functional, cell-based; conditions: Homo sapiens;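 also: growth inhibition of human ES6 cells, read out with a cell viability assay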
Description: SANGER: Inhibition of human ES6 cell growth in a cell viability assay.

NCI-H720 = format: functional, cell-based, Homo sapiens; conditions: Homo sapiens, NCI-H720;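 also: growth inhibition of human NCI-H720 cells determined by a cell viability assay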
Description: SANGER: Inhibition of human NCI-H720 cell growth in a cell viability assay.

KARPAS-45 = format: functional, cell-based, Homo sapiens; conditions: Homo sapiens, KARPAS-45;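 also: inhibition of cell line growth, read out through a viability assay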
Description: SANGER: Inhibition of human KARPAS-45 cell growth in a cell viability assay.

HCE-T = format: functional, cell-based, Homo sapiens; conditions: Homo sapiens, HCE-T;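 also: cell viability assay read-out, reporting inhibition of HCE-T cell growth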
Description: SANGER: Inhibition of human HCE-T cell growth in a cell viability assay.

COR-L88 = format: functional, cell-based, Homo sapiens; conditions: Homo sapiens, COR-L88;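 also: growth inhibition of COR-L88 cells, read out with a cell viability assay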
Description: SANGER: Inhibition of human COR-L88 cell growth in a cell viability assay.

NB5 = format: functional, cell-based, Homo sapiens; conditions: Homo sapiens, NB5;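 also: growth inhibition of NB5 cells, read out as cell viability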
Description: SANGER: Inhibition of human NB5 cell growth in a cell viability assay.

D-502MG = format: functional, cell-based, Homo sapiens; conditions: Homo sapiens, D-502MG
Description: SANGER: Inhibition of human D-502MG cell growth in a cell viability assay.

SW872 = format: functional, cell-based, Homo sapiens; conditions: Homo sapiens, SW872;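 also: growth inhibition of SW872 cells, read out by a viability assay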
Description: SANGER: Inhibition of human SW872 cell growth in a cell viability assay.

EW-1 = format: functional, cell-based, Homo sapiens; conditions: Homo sapiens, EW-1
Description: SANGER: Inhibition of human EW-1 cell growth in a cell viability assay.

ML-2 = format: functional, cell-based, Homo sapiens; conditions: Homo sapiens, ML-2;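 also: growth inhibition of ML-2 cells, measured with a cell viability readout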
Description: SANGER: Inhibition of human ML-2 cell growth in a cell viability assay.

LB771-HNC = format: functional, cell-based; conditions: Homo sapiens;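 also: growth inhibition of LB771-HNC human cells, read out with a cell viability assay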
Description: SANGER: Inhibition of human LB771-HNC cell growth in a cell viability assay.

ES8 = format: functional, cell-based, Homo sapiens; conditions: Homo sapiens, ES8;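 also: growth inhibition of human ES8 cells, read out with a cell viability assay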
Description: SANGER: Inhibition of human ES8 cell growth in a cell viability assay.

HH = format: functional, cell-based, Homo sapiens; conditions: Homo sapiens, HH
Description: SANGER: Inhibition of human HH cell growth in a cell viability assay.

CAS-1 = format: functional, cell-based, Homo sapiens; conditions: Homo sapiens, CAS-1;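 also: growth inhibition of CAS-1 cells, measured with a cell viability assay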
Description: SANGER: Inhibition of human CAS-1 cell growth in a cell viability assay.

NCI-H1155 = format: functional, cell-based, Homo sapiens; conditions: Homo sapiens, NCI-H1155;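 also: cell growth inhibition measured by a viability assay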
Description: SANGER: Inhibition of human NCI-H1155 cell growth in a cell viability assay.

P30-OHK = format: functional, cell-based, Homo sapiens; conditions: Homo sapiens, P30-OHK;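 also: growth inhibition of the P30-OHK cell line, read out with a cell viability assay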
Description: SANGER: Inhibition of human P30-OHK cell growth in a cell viability assay.

SK-N-FI = format: functional, cell-based, Homo sapiens; conditions: Homo sapiens, SK-N-FI;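 also: cell viability assay measuring growth inhibition of human SK-N-FI cells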
Description: SANGER: Inhibition of human SK-N-FI cell growth in a cell viability assay.

NB69 = format: functional, cell-based, Homo sapiens; conditions: Homo sapiens, NB69;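 also: growth inhibition of NB69 cells, determined by a cell viability assay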
Description: SANGER: Inhibition of human NB69 cell growth in a cell viability assay.

ES7 = format: functional, cell-based, Homo sapiens; conditions: Homo sapiens, ES7;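 also: growth inhibition of cultured human ES7 cells, read out as cell viability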
Description: SANGER: Inhibition of human ES7 cell growth in a cell viability assay.

MOLT-16 = format: functional, cell-based, Homo sapiens; conditions: Homo sapiens, MOLT-16;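 also: growth inhibition of human MOLT-16 cells, read out with a cell viability assay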
Description: SANGER: Inhibition of human MOLT-16 cell growth in a cell viability assay.

K5 = format: functional, cell-based, Homo sapiens; conditions: Homo sapiens, K5
Description: SANGER: Inhibition of human K5 cell growth in a cell viability assay.

NCI-H1304 = format: functional, cell-based, Homo sapiens; conditions: Homo sapiens, NCI-H1304;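 also: growth inhibition of the cancer cell line, measured in a cell viability assay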
Description: SANGER: Inhibition of human NCI-H1304 cell growth in a cell viability assay.

NCI-H1648 = format: functional, cell-based, Homo sapiens; conditions: Homo sapiens, NCI-H1648;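 also: cell viability assay measuring inhibition of NCI-H1648 cell growth, from the Sanger screening data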
Description: SANGER: Inhibition of human NCI-H1648 cell growth in a cell viability assay.

SCH = format: functional, cell-based, Homo sapiens; conditions: Homo sapiens, SCH;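 also: growth inhibition of human SCH cells, read out in a cell viability assay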
Description: SANGER: Inhibition of human SCH cell growth in a cell viability assay.

SBC-1 = format: functional, cell-based, Homo sapiens; conditions: Homo sapiens, SBC-1;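 also: cell viability assay measuring growth inhibition of the SBC-1 cell line, IC50 being the concentration that halves growth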
Description: SANGER: Inhibition of human SBC-1 cell growth in a cell viability assay.

A388 = format: functional, cell-based; conditions: Homo sapiens;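 also: growth inhibition of human A388 cells, read out with a cell viability assay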
Description: SANGER: Inhibition of human A388 cell growth in a cell viability assay.

TE-9 = format: functional, cell-based, Homo sapiens; conditions: Homo sapiens, TE-9;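 also: cell growth inhibition, measured with a cell viability readout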
Description: SANGER: Inhibition of human TE-9 cell growth in a cell viability assay.

NCI-H1581 = format: functional, cell-based, Homo sapiens; conditions: Homo sapiens, NCI-H1581;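 also: cell growth inhibition read out by a viability assay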
Description: SANGER: Inhibition of human NCI-H1581 cell growth in a cell viability assay.

HCC2157 = format: functional, cell-based, Homo sapiens; conditions: Homo sapiens, HCC2157;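 also: growth inhibition of the cancer cell line, read out as cell viability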
Description: SANGER: Inhibition of human HCC2157 cell growth in a cell viability assay.

Ramos-2G6-4C10 = format: functional, cell-based, Homo sapiens; conditions: Homo sapiens, Ramos-2G6-4C10;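 also: growth inhibition of the cell line, measured by a cell viability read-out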
Description: SANGER: Inhibition of human Ramos-2G6-4C10 cell growth in a cell viability assay.

COLO-824 = format: functional, cell-based, Homo sapiens; conditions: Homo sapiens, COLO-824
Description: SANGER: Inhibition of human COLO-824 cell growth in a cell viability assay.

ALL-PO = format: functional, cell-based, Homo sapiens; conditions: Homo sapiens, ALL-PO;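 also: growth inhibition of ALL-PO cells, read out by a cell viability assay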
Description: SANGER: Inhibition of human ALL-PO cell growth in a cell viability assay.

OMC-1 = format: functional, cell-based, Homo sapiens; conditions: Homo sapiens, OMC-1;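 also: growth inhibition of the OMC-1 cell line, measured by a cell viability assay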
Description: SANGER: Inhibition of human OMC-1 cell growth in a cell viability assay.

TE-6 = format: functional, cell-based, Homo sapiens; conditions: Homo sapiens, TE-6;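 also: growth inhibition of TE-6 cells, read out with a cell viability assay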
Description: SANGER: Inhibition of human TE-6 cell growth in a cell viability assay.

EW-16 = format: functional, cell-based, Homo sapiens; conditions: Homo sapiens, EW-16;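 also: growth inhibition of human EW-16 cells, read out as cell viability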
Description: SANGER: Inhibition of human EW-16 cell growth in a cell viability assay.

MMAC-SF = format: functional, cell-based; conditions: Homo sapiens;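 also: growth inhibition of human MMAC-SF cells, read out with a cell viability assay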
Description: SANGER: Inhibition of human MMAC-SF cell growth in a cell viability assay.

Measured: pIC50

OC[C@H](Cc1ccccc1)Nc1nc(Oc2ccc3c(c2)CCC3)nc2c1ncn2Cc1ccc(-c2ccccc2)cc1
5.26: GR-ST
5.08: EW-16
5.45: P30-OHK
5.35: MZ2-MEL
5.49: LB771-HNC
4.99: SW872
5.12: Ramos-2G6-4C10
< 4.99: all other assays above

O=C1NC(=O)c2c1c(-c1ccccc1Cl)cc1[nH]c3ccc(O)cc3c21
6.21: Ramos-2G6-4C10
5.79: HH
6.01: GR-ST
5.81: COR-L88
5.77: NCI-H720
5.72: P30-OHK
5.80: HCC2157
6.47: EW-1
5.85: MOLT-16
< 5.70: all other assays above

COc1ccc(N(C(=O)Oc2c(C)cccc2C)c2ccnc(Nc3ccc(N4CCN(C)CC4)cc3)n2)c(OC)c1
5.36: CAS-1 | TE-9
6.29: NCI-H1648
5.60: SF-268
6.06: SW872
5.64: D-263MG
7.25: LB996-RCC
5.69: ES6
5.51: MZ2-MEL
< 5.29: all other assays above

CC1(C)CCC(c2ccc(Cl)cc2)=C(CN2CCN(c3ccc(C(=O)NS(=O)(=O)c4ccc(N[C@H](CCN5CCOCC5)CSc5ccccc5)c(S(=O)(=O)C(F)(F)F)c4)cc3)CC2)C1 [NAVITOCLAX]
5.77: NCI-H1648 | A388
5.99: COLO-824
5.89: ES7
6.34: RPMI-8226 | NCI-H1304
6.44: COR-L88
5.73: OMC-1
5.83: NB69
7.11: KARPAS-45
6.09: NMC-G1 | EW-16
7.70: ML-2
7.40: NCI-H720
6.19: MOLT-16
6.66: ALL-PO
5.76: Ramos-2G6-4C10
5.98: P30-OHK
5.92: SBC-1 | HCC2157
< 5.70: all other assays above
